{
  "source": "PubChem BioAssay (NCI)",
  "test_in_all_cases": "DTP human tumour cell line panel, 384-well format",
  "key": {"[1]": {"test_system": "A498 renal"}, "[2]": {"test_system": "HL-60(TB) leukemia"}, "[3]": {"test_system": "HOP-92 NSCLC"}, "[4]": {"test_system": "HS 578T breast"}, "[5]": {"test_system": "M14 melanoma"}, "[6]": {"test_system": "MDA-MB-231 breast"}, "[7]": {"test_system": "MDA-MB-435 melanoma"}, "[8]": {"test_system": "NCI-H322M lung"}, "[9]": {"test_system": "OVCAR-3 ovarian"}, "[10]": {"test_system": "SF-539 CNS"}, "[11]": {"test_system": "SK-MEL-2 melanoma"}, "[12]": {"test_system": "SN12C renal"}, "[13]": {"test_system": "SNB-19 CNS"}},
  "note": "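Abbreviation: GI50, concentration required for 50% inhibition of growth. The concentration for full growth arrest is given as TGI.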",
  "data": [
    {"molecule": "Cc1cc(Nc2cc(N)ncn2)c(=O)n2c1C(=O)NC21CCCCC1", "values": [
      {"measurement": "GI50", "setting": "[1]", "result": "> 100", "unit": "µM"},
      {"measurement": "TGI", "setting": "[1]", "result": "> 100", "unit": "µM"},
      {"measurement": "GI50", "setting": "[2]", "result": "> 100", "unit": "µM"},
      {"measurement": "TGI", "setting": "[2]", "result": "> 100", "unit": "µM"},
      {"measurement": "GI50", "setting": "[3]", "result": "> 23.2", "unit": "µM"},
      {"measurement": "TGI", "setting": "[3]", "result": "> 100", "unit": "µM"},
      {"measurement": "GI50", "setting": "[4]", "result": "> 100", "unit": "µM"},
      {"measurement": "TGI", "setting": "[4]", "result": "> 100", "unit": "µM"},
      {"measurement": "GI50", "setting": "[5]", "result": "> 100", "unit": "µM"},
      {"measurement": "TGI", "setting": "[5]", "result": "> 100", "unit": "µM"},
      {"measurement": "GI50", "setting": "[6]", "result": "> 100", "unit": "µM"},
      {"measurement": "TGI", "setting": "[6]", "result": "> 100", "unit": "µM"},
      {"measurement": "GI50", "setting": "[7]", "result": "> 100", "unit": "µM"},
      {"measurement": "TGI", "setting": "[7]", "result": "> 100", "unit": "µM"},
      {"measurement": "GI50", "setting": "[8]", "result": "> 100", "unit": "µM"},
      {"measurement": "TGI", "setting": "[8]", "result": "> 100", "unit": "µM"},
      {"measurement": "GI50", "setting": "[9]", "result": "> 100", "unit": "µM"},
      {"measurement": "TGI", "setting": "[9]", "result": "> 100", "unit": "µM"},
      {"measurement": "GI50", "setting": "[10]", "result": "> 100", "unit": "µM"},
      {"measurement": "TGI", "setting": "[10]", "result": "> 100", "unit": "µM"},
      {"measurement": "GI50", "setting": "[11]", "result": "> 100", "unit": "µM"},
      {"measurement": "TGI", "setting": "[11]", "result": "> 100", "unit": "µM"},
      {"measurement": "GI50", "setting": "[12]", "result": "> 100", "unit": "µM"},
      {"measurement": "TGI", "setting": "[12]", "result": "> 100", "unit": "µM"},
      {"measurement": "GI50", "setting": "[13]", "result": "> 100", "unit": "µM"},
      {"measurement": "TGI", "setting": "[13]", "result": "> 100", "unit": "µM"}
    ]}
  ]
}
